Assay results: patent US20240217990A1 (Gilead Sciences, Inc., priority 2021, published 2024)

Key:
TLR7 = molecular target: T1, TLR7 (Homo sapiens, UniProt Q9NYK1); test: TLR7 human PBMC cell-based assay (antagonist, GS-986 stimulated cytokine release); conditions: human PBMCs; TLR7 agonist GS-986 400 nM, 6 hours; cytokines (IL-6 and IFNα) in supernatant; read-out: TLR-7 EC50
T1 construct: Human peripheral blood mononuclear cells (PBMCs) consist of lymphocytes, monocytes and dendritic cells that express TLR7, TLR8 and TLR9; endogenous in cells; host or cells: cryopreserved human PBMCs from healthy donors
T1 sequence (Q9NYK1 27-1049): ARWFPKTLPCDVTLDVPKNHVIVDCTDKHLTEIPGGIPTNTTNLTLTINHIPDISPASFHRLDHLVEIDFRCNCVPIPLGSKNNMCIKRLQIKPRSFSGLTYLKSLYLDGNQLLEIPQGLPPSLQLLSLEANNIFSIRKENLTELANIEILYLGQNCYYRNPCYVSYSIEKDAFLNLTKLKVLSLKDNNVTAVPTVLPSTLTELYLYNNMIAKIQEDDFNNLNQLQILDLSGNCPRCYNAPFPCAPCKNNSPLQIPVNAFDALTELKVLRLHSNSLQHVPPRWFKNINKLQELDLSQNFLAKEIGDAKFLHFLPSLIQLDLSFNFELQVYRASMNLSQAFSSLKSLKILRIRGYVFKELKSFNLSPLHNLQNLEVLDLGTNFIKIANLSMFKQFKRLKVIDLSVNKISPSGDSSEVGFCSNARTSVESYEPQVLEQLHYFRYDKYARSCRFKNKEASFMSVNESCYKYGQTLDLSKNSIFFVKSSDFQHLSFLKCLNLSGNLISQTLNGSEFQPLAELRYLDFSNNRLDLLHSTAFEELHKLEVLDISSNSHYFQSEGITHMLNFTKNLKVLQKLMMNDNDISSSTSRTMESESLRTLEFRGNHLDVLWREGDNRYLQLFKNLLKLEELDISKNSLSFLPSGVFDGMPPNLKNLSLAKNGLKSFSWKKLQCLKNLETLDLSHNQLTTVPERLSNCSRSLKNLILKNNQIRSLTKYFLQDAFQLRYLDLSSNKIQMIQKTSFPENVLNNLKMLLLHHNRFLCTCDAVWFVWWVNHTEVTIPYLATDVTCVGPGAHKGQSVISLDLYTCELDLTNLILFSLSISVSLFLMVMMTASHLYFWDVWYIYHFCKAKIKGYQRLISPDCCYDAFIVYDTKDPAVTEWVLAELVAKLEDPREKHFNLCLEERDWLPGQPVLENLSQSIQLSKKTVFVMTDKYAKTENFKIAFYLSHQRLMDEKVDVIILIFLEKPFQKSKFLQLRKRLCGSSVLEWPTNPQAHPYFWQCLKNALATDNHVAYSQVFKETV
How it was run: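 Cryopreserved healthy-donor PBMCs (100,000/well, RPMI-1640 + 10% FBS) pre-incubated 1 h at 37 °C with antagonist (10-point dose response, quadruplicate), then stimulated 6 h with GS-986 at 400 nM final. Supernatant IL-6 and IFNα measured by electrochemiluminescence immunoassay; EC50 from sigmoidal fit.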

TLR8 = molecular target: T2, TLR8 (Homo sapiens, UniProt Q9NR97); test: TLR8 human PBMC cell-based assay (antagonist, Compound A stimulated cytokine release); conditions: human PBMCs; TLR8 agonist Compound A 800 nM, 6 hours; cytokines (TNFa and IL 12p40) in supernatant; read-out: TLR-8 EC50
T2 construct: Human peripheral blood mononuclear cells (PBMCs) consist of lymphocytes, monocytes and dendritic cells that express TLR7, TLR8 and TLR9; endogenous in cells; host or cells: cryopreserved human PBMCs from healthy donors
T2 sequence (Q9NR97 27-1041): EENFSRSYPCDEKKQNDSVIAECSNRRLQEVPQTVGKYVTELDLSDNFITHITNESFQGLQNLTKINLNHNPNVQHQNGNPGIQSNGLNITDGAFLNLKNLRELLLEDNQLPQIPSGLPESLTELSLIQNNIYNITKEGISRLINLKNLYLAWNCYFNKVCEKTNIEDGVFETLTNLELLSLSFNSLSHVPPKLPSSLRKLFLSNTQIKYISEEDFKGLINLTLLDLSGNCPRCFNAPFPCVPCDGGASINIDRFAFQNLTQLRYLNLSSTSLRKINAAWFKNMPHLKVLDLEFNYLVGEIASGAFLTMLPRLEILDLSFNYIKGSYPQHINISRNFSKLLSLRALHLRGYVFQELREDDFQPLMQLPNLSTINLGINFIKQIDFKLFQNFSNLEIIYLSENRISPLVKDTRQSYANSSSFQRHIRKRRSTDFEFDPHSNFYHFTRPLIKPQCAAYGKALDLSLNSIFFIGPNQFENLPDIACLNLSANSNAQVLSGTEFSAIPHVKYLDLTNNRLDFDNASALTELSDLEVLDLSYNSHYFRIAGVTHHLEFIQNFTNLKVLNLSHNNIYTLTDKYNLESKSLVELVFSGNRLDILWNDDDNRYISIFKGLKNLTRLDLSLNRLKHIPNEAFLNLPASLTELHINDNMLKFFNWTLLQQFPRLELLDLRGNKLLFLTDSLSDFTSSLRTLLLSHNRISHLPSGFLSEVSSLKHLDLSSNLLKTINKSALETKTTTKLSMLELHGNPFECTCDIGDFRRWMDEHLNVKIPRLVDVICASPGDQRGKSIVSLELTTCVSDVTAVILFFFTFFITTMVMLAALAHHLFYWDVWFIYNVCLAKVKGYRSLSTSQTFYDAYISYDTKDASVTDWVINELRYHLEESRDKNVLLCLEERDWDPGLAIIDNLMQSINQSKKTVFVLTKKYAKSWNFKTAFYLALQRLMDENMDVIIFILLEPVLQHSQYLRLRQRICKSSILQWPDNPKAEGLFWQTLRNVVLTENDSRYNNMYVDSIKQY
How it was run: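 Cryopreserved donor PBMCs (100,000/well, RPMI + 10% FBS) were preincubated 1 h with antagonist (10-point dose response, quadruplicate), then stimulated with Compound A (800 nM final) for 6 h at 37 °C. TNFa and IL-12p40 in supernatants were measured by electrochemiluminescence; sigmoidal fits gave EC50.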

CC(C)c1c(-c2ccc3nccn3c2)[nH]c2cc(C(=O)N3CCNCC3)sc12 [Example 67]
EC50 (TLR7): 6.3 nM | EC50 (TLR8): 131 nM

CC(C)c1c(-c2ccn3ccnc3c2)[nH]c2cc(C(=O)N3CCNCC3)sc12 [Example 68]
EC50 (TLR7): 822 nM | EC50 (TLR8): > 1000 nM

Cc1cc(-c2[nH]c3cc(C(=O)N4CCN(CCO)CC4)sc3c2C(C)C)cn2ncnc12 [Example 69]
EC50 (TLR7): 24.4 nM | EC50 (TLR8): 9.2 nM

Cc1cc(-c2[nH]c3cc(C4=NCC5(CCNCC5)O4)sc3c2C(C)C)cn2ncnc12 [Example 70]
EC50 (TLR7): 0.2 nM | EC50 (TLR8): 9.3 nM

Cc1cc(-c2[nH]c3cc(-c4nnc(C5CCC(N)CC5)o4)sc3c2C(C)C)cc(C)n1 (stereo not shown) [Example 71]
EC50 (TLR7): 22.3 nM | EC50 (TLR8): 23.6 nM

CN[C@@H]1CCN(C(=O)c2cc3[nH]c(-c4cc(C)c5ncnn5c4)c(C(C)C)c3s2)C1 [Example 72]
EC50 (TLR7): 1.9 nM | EC50 (TLR8): 1.1 nM

CN[C@H]1CCN(C(=O)c2cc3[nH]c(-c4cc(C)c5ncnn5c4)c(C(C)C)c3s2)C1 [Example 73]
EC50 (TLR7): 4.9 nM | EC50 (TLR8): 1.7 nM

Cc1cc(-c2[nH]c3cc(C(=O)N4C[C@@H]5[C@@H](N)[C@@H]5C4)sc3c2C(C)C)cn2ncnc12 [Example 74]
EC50 (TLR7): 10.5 nM | EC50 (TLR8): 10.5 nM

Cc1cc(-c2[nH]c3cc(C(=O)N(C)[C@H]4[C@@H]5CNC[C@@H]54)sc3c2C(C)C)cn2ncnc12 [Example 75]
EC50 (TLR7): 1.6 nM | EC50 (TLR8): 14 nM

Cc1cc(-c2[nH]c3cc(C(=O)N(C)[C@@H]4CCNC[C@H]4F)sc3c2C(C)C)cn2ncnc12 [Example 76]
EC50 (TLR7): 0.6 nM | EC50 (TLR8): 6.5 nM

Cc1cc(-c2[nH]c3cc(C(=O)N4C[C@@H](N)C[C@@H](C(F)(F)F)C4)sc3c2C(C)C)cn2ncnc12 [Example 77]
EC50 (TLR7): 9 nM | EC50 (TLR8): 40.3 nM

Cc1cc(-c2[nH]c3cc(C(=O)N(C)[C@H]4CCNC[C@@H]4F)sc3c2C(C)C)cn2ncnc12 [Example 78]
EC50 (TLR7): 0.4 nM | EC50 (TLR8): 8.6 nM

Cc1cc(-c2[nH]c3cc(C(=O)N(C)[C@@H]4CCNC[C@@H]4F)sc3c2C(C)C)cn2ncnc12 [Example 79]
EC50 (TLR7): 0.3 nM | EC50 (TLR8): 9.1 nM

Cc1cc(-c2[nH]c3cc(C(=O)N(C)[C@H]4CCNC[C@H]4F)sc3c2C(C)C)cn2ncnc12 [Example 80]
EC50 (TLR7): 0.5 nM | EC50 (TLR8): 9.5 nM

Cc1cc(-c2[nH]c3cc(C(=O)N(C)[C@H]4CCNCC4(F)F)sc3c2C(C)C)cn2ncnc12 [Example 81]
EC50 (TLR7): 10.3 nM | EC50 (TLR8): 91 nM

Cc1cc(-c2[nH]c3cc(C(=O)N(C)[C@@H]4CCN(C5CCC5)C[C@@H]4F)sc3c2C(C)C)cn2ncnc12 [Example 83]
EC50 (TLR7): 17.8 nM | EC50 (TLR8): 17.7 nM

Cc1cc(-c2[nH]c3cc(C(=O)N(C4CCC4)C4CCNCC4)sc3c2C(C)C)cn2ncnc12 [Example 84]
EC50 (TLR7): 1.1 nM | EC50 (TLR8): 25.1 nM

Cc1cc(-c2[nH]c3cc(C(=O)N4CCNC(C)(C)C4)sc3c2C(C)C)cn2ncnc12 [Example 85]
EC50 (TLR7): 1.3 nM | EC50 (TLR8): 0.6 nM

Cc1c(-c2[nH]c3cc(C(=O)N4CCNC(C)(C)C4)sc3c2C(C)C)cn2ncnc2c1C [Example 86]
EC50 (TLR7): 1 nM | EC50 (TLR8): 0.3 nM

Cc1cc(-c2[nH]c3cc(C(=O)N4CCC[C@H](N)[C@@H]4C)sc3c2C(C)C)cn2ncnc12 [Example 87]
EC50 (TLR7): 0.5 nM | EC50 (TLR8): 13 nM

Cc1cc(-c2[nH]c3cc(C(=O)N4CCC5CNCCC54)sc3c2C(C)C)cn2ncnc12 (stereo not shown) [Example 88]
EC50 (TLR7): 0.5 nM | EC50 (TLR8): 4.6 nM

Cc1cc(-c2[nH]c3cc(C(=O)N4CCC5CCNCC54)sc3c2C(C)C)cn2ncnc12 (stereo not shown) [Example 89]
EC50 (TLR7): 2.5 nM | EC50 (TLR8): 26.2 nM

Cc1cc(-c2[nH]c3cc(C(=O)N4CCC5CCNC5C4)sc3c2C(C)C)cn2ncnc12 (stereo not shown) [Example 90]
EC50 (TLR7): 1 nM | EC50 (TLR8): 9.9 nM

Cc1cc(-c2[nH]c3cc(C(=O)N4C[C@H](N)[C@@H]5CC[C@H]4C5)sc3c2C(C)C)cn2ncnc12 [Example 91]
EC50 (TLR7): 3 nM | EC50 (TLR8): 12.3 nM

Cc1cc(-c2[nH]c3cc(C(=O)N(C)C4CCNCC4(C)C)sc3c2C(C)C)cn2ncnc12 (stereo not shown) [Example 92]
EC50 (TLR7): 0.2 nM | EC50 (TLR8): 23.1 nM

Cc1cc(-c2[nH]c3cc(C(=O)N4CCC[C@@H]5NCC[C@@H]54)sc3c2C(C)C)cn2ncnc12 [Example 93]
EC50 (TLR7): 0.6 nM | EC50 (TLR8): 19.8 nM

Cc1cc(-c2[nH]c3cc(C(=O)N(C)CCCN(C)C)sc3c2C(C)C)cn2ncnc12 [Example 94]
EC50 (TLR7): 1 nM | EC50 (TLR8): 4.7 nM

Cc1cc(-c2[nH]c3cc(C(=O)N(C)CCN4CCOCC4)sc3c2C(C)C)cn2ncnc12 [Example 95]
EC50 (TLR7): 45.2 nM | EC50 (TLR8): 35 nM

Cc1cc(-c2[nH]c3cc(C(=O)N4C[C@@H](N)CC[C@H]4C)sc3c2C(C)C)cn2ncnc12 [Example 96]
EC50 (TLR7): 0.3 nM | EC50 (TLR8): 25.8 nM

Cc1cc(-c2[nH]c3cc(C(=O)N4CCC[C@H]4CN4CCCC4)sc3c2C(C)C)cn2ncnc12 [Example 97]
EC50 (TLR7): 12.9 nM | EC50 (TLR8): 32.6 nM

Cc1cc(-c2[nH]c3cc(C(=O)N(CCN(C)C)C4CCCC4)sc3c2C(C)C)cn2ncnc12 [Example 98]
EC50 (TLR7): 14.3 nM | EC50 (TLR8): 17.5 nM

Cc1cc(-c2[nH]c3cc(C(=O)N(C)CCN4CCCC4)sc3c2C(C)C)cn2ncnc12 [Example 99]
EC50 (TLR7): 4.1 nM | EC50 (TLR8): 11.6 nM

Cc1cc(-c2[nH]c3cc(C(=O)N(C)CCN(C)C4CC4)sc3c2C(C)C)cn2ncnc12 [Example 100]
EC50 (TLR7): 9.6 nM | EC50 (TLR8): 22.5 nM

Cc1cc(-c2[nH]c3cc(C(=O)N4C[C@@H](N)CC[C@@H]4C)sc3c2C(C)C)cn2ncnc12 [Example 101]
EC50 (TLR7): 2.2 nM | EC50 (TLR8): 78.8 nM

Cc1cc(-c2[nH]c3cc(C(=O)N4CCC[C@H]4CN(C)C)sc3c2C(C)C)cn2ncnc12 [Example 103]
EC50 (TLR7): 11.3 nM | EC50 (TLR8): 21.3 nM

Cc1cc(-c2[nH]c3cc(C(=O)N4CCC[C@@H]4CN(C)C)sc3c2C(C)C)cn2ncnc12 [Example 104]
EC50 (TLR7): 7.8 nM | EC50 (TLR8): 10.6 nM

Cc1cc(-c2[nH]c3cc(C(=O)N4CC[C@H](C)[C@H](N)C4)sc3c2C(C)C)cn2ncnc12 [Example 105]
EC50 (TLR7): 4.6 nM | EC50 (TLR8): 16.3 nM

Cc1cc(-c2[nH]c3cc(C(=O)N4CCCCC4CN(C)C)sc3c2C(C)C)cn2ncnc12 (stereo not shown) [Example 107]
EC50 (TLR7): 3.9 nM | EC50 (TLR8): 12.8 nM
